# Results published in patent publication US8148366B2, “Substituted pyrazolo[3,4-E][diazepin-6-5(H)ones and analogues thereof, their preparation and their use as antibacterial medicaments” (Novexel SA, priority 2008, dated 2012).
# Test system: Pseudomonas aeruginosa (1771 Wild-type strain)
# Assay: Activity in vitro, method of dilutions in liquid medium (M.I.C.)
# Assay type: cell-based
# Conditions: incubation 24 hours at 37° C., growth inhibition by transillumination
# Procedure: Activity in vitro, method of dilutions in liquid medium:
# A series of tubes is prepared, into which the same quantity of sterile nutritive medium is distributed, increasing quantities of the product to be studied are distributed into each tube then each tube is seeded with a bacterial strain. After incubation for 24 hours in an oven at 37° C., growth inhibition is assessed by transillumination, which makes it possible to determine the minimum inhibitory concentrations (M.I.C.) expressed in μg/ml.
# Tests are thus carried out with the products of Examples 1 to 19 in comparison with the products of Examples 11 of the Application WO 04/052891 and 18 of the Application WO 02/100860.
row,"MIC (μg/mL) 24 h (P, aerug, 1771)",Compound
1,0.5 µg/mL,"NC[C@@H]1c2nn(C(=O)N3CCNCC3)cc2[C@H]2CN1C(=O)N2OS(=O)(=O)O (relative stereo) [Ex2, trans 8-(aminomethyl)-2-(4-piperazine-1-carbonyl)-4,8-dihydro-5-(sulphooxy)-4,7-methano-7H-pyrazolo[3,4-e][1,3]diazepin-6(5H)-one]"
2,0.5 µg/mL,N=C(N)n1ncc2c1[C@@H](CN)N1C[C@H]2N(OS(=O)(=O)O)C1=O (relative stereo) [Ex9]
3,0.5 µg/mL,"Cn1ncc2c1[C@@H](CN)N1C[C@H]2N(OC(F)(F)C(=O)O)C1=O (relative stereo) [Ex18, trans 8-(amino-methyl)-4,8-dihydro-1-methyl-6-oxo-5-(carboxy-difluoro-methoxy)-4,7-methano-7H-pyrazolo[3,4-e][1,3] diazepin-6(5H)-one]"

row,Compound,"MIC (μg/mL) 24 h (P, aerug, 1771)"
1,"trans 8-(aminomethyl)-2-amino-carbamoyl-4,8-dihydro-5-(sulphooxy)-4,7-methano-7H-pyrazolo[3,4-e][1,3]diazepin-6(5H)-one [Ex19]",0.5 µg/mL

# Same assay, conditions: incubation 24 hours at 37° C., growth inhibition by transillumination, read-out: MIC (μg/mL) 24 h (P, aerug, 1771)
row,Compound,MIC
1,"CN(C)CCNC(=O)n1cc2c(n1)[C@@H](CN)N1C[C@H]2N(OS(=O)(=O)O)C1=O (relative stereo) [Ex3, trans 8-(aminomethyl)-4,8-dihydro-2-(2-dimethylaminoethylcarbamoyl)-5-(sulphooxy)-4,7-methano-7H-pyrazolo[3,4-e][1,3] diazepin-6(5H)-one]",1 µg/mL
2,"NC[C@@H]1c2nn(C(=O)N3CCCC3)cc2[C@H]2CN1C(=O)N2OS(=O)(=O)O (relative stereo) [Ex4, trans 8-(aminomethyl)-4,8-dihydro-2-(pyrrolidine-1-carbonyl)-5-(sulphooxy)-4,7-methano-7H-pyrazolo[3,4-e][1,3]diazepin-6(5H)-one]",8 µg/mL
3,"NCCCNC(=O)n1cc2c(n1)[C@@H](CN)N1C[C@H]2N(OS(=O)(=O)O)C1=O (relative stereo) [Ex5, trans 8-(aminomethyl)-2-[(3-amino-propyl)carbamoyl]-4,8-dihydro-5-(sulphooxy)-4,7-methano-7H-pyrazolo[3,4-e][1,3] diazepin-6(5H)-one]",0.5 µg/mL
4,"CC(N)CCNC(=O)n1cc2c(n1)[C@@H](CN)N1C[C@H]2N(OS(=O)(=O)O)C1=O (relative stereo) [Ex6, trans 8-(aminomethyl)-2-[(3-amino-butyl)carbamoyl]-4,8-dihydro-5-(sulphooxy)-4,7-methano-7H-pyrazolo[3,4-e][1,3] diazepin-6(5H)-one]",4 µg/mL
5,"NC[C@@H]1c2nn(C(=O)NCC(N)=O)cc2[C@H]2CN1C(=O)N2OS(=O)(=O)O (relative stereo) [Ex7, trans 8-(aminomethyl)-2-(carbamoylmethyl-carbamoyl)-4,8-dihydro-5-(sulphooxy)-4,7-methano-7H-pyrazolo[3,4-e][1,3]diazepin-6(5H)-one]",1 µg/mL
6,"N=C(N)n1cc2c(n1)[C@@H](CN)N1C[C@H]2N(OS(=O)(=O)O)C1=O (relative stereo) [Ex10, trans 8-(aminomethyl)-2-(carbamimidoyl)-4,8-dihydro-5-(sulphooxy)-4,7-methano-7H-pyrazolo[3,4-e] [1,3]diazepin-6(5H)-one]",0.5 µg/mL

# Second part, the compound after the results:
row,MIC,Compound
1,0.25 µg/mL,"NC[C@@H]1c2nn(C(=O)C3CCNCC3)cc2[C@H]2CN1C(=O)N2OS(=O)(=O)O (relative stereo) [Ex11, trans-8-(amino-methyl)-4,8-dihydro-2-(piperidine-4-carbonyl)-5-(sulphooxy)-4,7-methano-7H-pyrazolo[3,4-e][1,3]diazepin-6(5H)-one]"
2,0.5 µg/mL,"NC[C@@H]1c2nn(CCC(N)C(=O)O)cc2[C@H]2CN1C(=O)N2OS(=O)(=O)O (relative stereo) [Ex12, trans 8-(amino-methyl)-2-(3-amino-3-carboxy-propyl)-4,8-dihydro-5-(sulphooxy)-4,7-methano-7H-pyrazolo[3,4-e][1,3] diazepin-6(5H)-one]"
3,1 µg/mL,"N=C(N)NC[C@@H]1c2[nH]ncc2[C@H]2CN1C(=O)N2OS(=O)(=O)O (relative stereo) [Ex13, trans 8-(guanidino-methyl)-4,8-dihydro-5-(sulphooxy)-4,7-methano-7H-pyrazolo[3,4-e][1,3]diazepin-6(5H)-one]"
4,> 32 µg/mL,"CCNC(=O)n1ncc2c1[C@@H](CNC(=N)N)N1C[C@H]2N(OS(=O)(=O)O)C1=O (relative stereo) [Ex15, trans 8-(guanidino-methyl)-1-ethylcarbamoyl-4,8-dihydro-5-(sulphooxy)-4,7-methano-7H-pyrazolo[3,4-e][1,3]diazepin-6(5H)-one]"
5,16 µg/mL,"CCNC(=O)n1cc2c(n1)[C@@H](CNC(=N)N)N1C[C@H]2N(OS(=O)(=O)O)C1=O (relative stereo) [Ex16, trans 8-(guanidino-methyl)-2-ethylcarbamoyl-4,8-dihydro-5-(sulphooxy)-4,7-methano-7H-pyrazolo[3,4-e][1,3] diazepin-6(5H)-one]"
6,1 µg/mL,"N=C(N)NC[C@@H]1c2nn(C(N)=O)cc2[C@H]2CN1C(=O)N2OS(=O)(=O)O (relative stereo) [Ex17, trans 8-(guanidino-methyl)-2-carbamoyl-4,8-dihydro-5-(sulphooxy)-4,7-methano-7H-pyrazolo[3,4-e][1,3]diazepin-6(5H)-one]"
